# Reference: patent US6683027B2, “Herbicidal mixtures” (BASF Aktienegesellschaft, priority 2000, dated 2004)
# Tests used:
# Type in all cases: in vivo
# Matricaria inodora [1] = assay: greenhouse pre-emergence trial, percent damage vs untreated control 21 days after treatment; settings: 3.75 g/ha, MATIN, Example 2
# Stellaria media [2] = assay: as above; settings: STEME
# Lolium perenne [3] = assay: as above; settings: 3.75 g/ha, LOLPE
# Papaver rhoeas [4] = assay: as above; settings: PAPRH
# Setaria viridis [5] = assay: as above; settings: SETVI, Example 1A
# Alopecurus myosuroides = assay: greenhouse post-emergence trial, percent damage vs untreated control 21 days after treatment; settings: ALOMY
# Protocol: (§1) The trials are carried out under greenhouse conditions in pre- and post-emergence applications. The plant seeds are sown in pots containing a loamy sand soil (0.5 l). The herbicides are applied as single treatments, or in a combination comprising a compound of formula I and compound selected from group (2) as defined above, before or after emergence of weeds and crop. The herbicidal performance is assessed as percent damage in comparison to the untreated control plants. The assessment is done 21 days after the treatment. Wheat and barley are treated at the 3-4 leaf stage, the broad-leaf weeds at the 2-4 leaf stage and annual grasses at the 2-3 leaf stage.
# Stellaria media [6] = assay: as above; settings: STEME
# Protocol: as §1
# Galium aparine [7] = assay: as above; settings: GALAP
# Protocol: as §1
# Matricaria inodora [8] = assay: as above; settings: MATIN
# Protocol: as §1
# Lolium perenne [9] = assay: as above; settings: LOLPE
# Protocol: as §1
# Veronica persica = assay: as above; settings: 3.75 g/ha, VERPE, Example 1B
# Protocol: as §1
# Apera spica-venti = assay: as above; settings: APESV
# Protocol: as §1
# Lamium purpureum [10] = assay: as above; settings: LAMPU
# Protocol: as §1
# Setaria viridis [11] = assay: as above; settings: SETVI
# Protocol: as §1
# Papaver rhoeas [12] = assay: as above; settings: PAPRH, Example 1B
# Protocol: as §1
# Galium aparine [13] = assay: greenhouse pre-emergence trial, percent damage vs untreated control 21 days after treatment; settings: GALAP
# Lamium purpureum [14] = assay: as above; settings: 3.75 g/ha, LAMPU, Example 1A
structure (smiles),measurement,setting,value
"FC(F)(F)c1ccc(-c2nccc(Oc3cccc(C(F)(F)F)c3)n2)cc1 [Compound A, 4-(3-trifluoromethylphenoxy)-2-(4-trifluoromethylphenyl)-pyrimidine]",Compound A alone (% control),Matricaria inodora [1],50%
same,Compound A alone (% control),"Stellaria media [2]; 3.75 g/ha, Example 1A",0%
same,Compound A alone (% control),"Stellaria media [2]; 7.5 g/ha, Example 1A",10%
same,Compound A alone (% control),"Stellaria media [2]; 7.5 g/ha, Example 2",5%
same,Compound A alone (% control),"Stellaria media [2]; 15 g/ha, Example 1A",60%
same,Compound A alone (% control),Lolium perenne [3]; Example 1A,5%
same,Compound A alone (% control),Lolium perenne [3]; Example 2,15%
same,Compound A alone (% control),"Papaver rhoeas [4]; 3.75 g/ha, Example 1A",63%
same,Compound A alone (% control),"Papaver rhoeas [4]; 3.75 g/ha, Example 2",0%
same,Compound A alone (% control),"Papaver rhoeas [4]; 7.5 g/ha, Example 2",15%
same,Compound A alone (% control),Setaria viridis [5]; 3.75 g/ha,0%
same,Compound A alone (% control),Setaria viridis [5]; 7.5 g/ha,35%
same,Compound A alone (% control),"Alopecurus myosuroides; 3.75 g/ha, Example 1B",10%
same,Compound A alone (% control),"Alopecurus myosuroides; 3.75 g/ha, Example 12",0%
same,Compound A alone (% control),"Alopecurus myosuroides; 3.75 g/ha, Example 13",3%
same,Compound A alone (% control),"Alopecurus myosuroides; 7.5 g/ha, Example 1B",28%
same,Compound A alone (% control),"Alopecurus myosuroides; 7.5 g/ha, Example 4",23%
same,Compound A alone (% control),"Alopecurus myosuroides; 7.5 g/ha, Example 5",3%
same,Compound A alone (% control),"Alopecurus myosuroides; 7.5 g/ha, Example 13",5%
same,Compound A alone (% control),"Alopecurus myosuroides; 15 g/ha, Example 1B",45%
same,Compound A alone (% control),"Alopecurus myosuroides; 15 g/ha, Example 4",28%
same,Compound A alone (% control),"Alopecurus myosuroides; 15 g/ha, Example 5",8%
same,Compound A alone (% control),"Alopecurus myosuroides; 15 g/ha, Example 12",0%
same,Compound A alone (% control),"Alopecurus myosuroides; 15 g/ha, Example 13",8%
same,Compound A alone (% control),"Alopecurus myosuroides; 30 g/ha, Example 4",50%
same,Compound A alone (% control),"Alopecurus myosuroides; 30 g/ha, Example 5",23%
same,Compound A alone (% control),"Alopecurus myosuroides; 30 g/ha, Example 12",10%
same,Compound A alone (% control),"Alopecurus myosuroides; 30 g/ha, Example 13",15%
same,Compound A alone (% control),"Alopecurus myosuroides; 30 g/ha, Example 14",15%
same,Compound A alone (% control),"Alopecurus myosuroides; 60 g/ha, Example 5",28%
same,Compound A alone (% control),"Alopecurus myosuroides; 60 g/ha, Example 13",43%
same,Compound A alone (% control),"Alopecurus myosuroides; 60 g/ha, Example 14",33%
same,Compound A alone (% control),"Stellaria media [6]; 3.75 g/ha, Example 1B",10%
same,Compound A alone (% control),"Stellaria media [6]; 3.75 g/ha, Example 4",28%
same,Compound A alone (% control),"Stellaria media [6]; 7.5 g/ha, Example 1B",18%
same,Compound A alone (% control),"Stellaria media [6]; 7.5 g/ha, Example 13",30%
same,Compound A alone (% control),"Stellaria media [6]; 15 g/ha, Example 1B",45%
same,Compound A alone (% control),"Stellaria media [6]; 15 g/ha, Example 9",70%
same,Compound A alone (% control),"Stellaria media [6]; 30 g/ha, Example 1B",70%
same,Compound A alone (% control),"Galium aparine [7]; 3.75 g/ha, Example 5",10%
same,Compound A alone (% control),"Galium aparine [7]; 3.75 g/ha, Example 10",13%
same,Compound A alone (% control),"Galium aparine [7]; 3.75 g/ha, Example 14",40%
same,Compound A alone (% control),"Galium aparine [7]; 7.5 g/ha, Example 5",23%
same,Compound A alone (% control),"Galium aparine [7]; 15 g/ha, Example 10",20%
same,Compound A alone (% control),"Galium aparine [7]; 15 g/ha, Example 12",0%
same,Compound A alone (% control),"Galium aparine [7]; 30 g/ha, Example 12",20%
same,Compound A alone (% control),"Galium aparine [7]; 60 g/ha, Example 10",55%
same,Compound A alone (% control),"Matricaria inodora [8]; 3.75 g/ha, Example 10",5%
same,Compound A alone (% control),"Matricaria inodora [8]; 7.5 g/ha, Example 10",13%
same,Compound A alone (% control),"Matricaria inodora [8]; 7.5 g/ha, Example 13",15%
same,Compound A alone (% control),"Matricaria inodora [8]; 15 g/ha, Example 9",48%
same,Compound A alone (% control),"Matricaria inodora [8]; 15 g/ha, Example 10",30%
same,Compound A alone (% control),"Lolium perenne [9]; 3.75 g/ha, Example 1B",10%
same,Compound A alone (% control),"Lolium perenne [9]; 3.75 g/ha, Example 12",0%
same,Compound A alone (% control),"Lolium perenne [9]; 7.5 g/ha, Example 1B",28%
same,Compound A alone (% control),"Lolium perenne [9]; 7.5 g/ha, Example 4",23%
same,Compound A alone (% control),"Lolium perenne [9]; 15 g/ha, Example 1B",50%
same,Compound A alone (% control),"Lolium perenne [9]; 15 g/ha, Example 5",23%
same,Compound A alone (% control),"Lolium perenne [9]; 30 g/ha, Example 6",60%
same,Compound A alone (% control),"Lolium perenne [9]; 30 g/ha, Example 7",65%
same,Compound A alone (% control),"Lolium perenne [9]; 30 g/ha, Example 13",28%
same,Compound A alone (% control),"Lolium perenne [9]; 60 g/ha, Example 7",75%
same,Compound A alone (% control),"Lolium perenne [9]; 60 g/ha, Example 8",75%
same,Compound A alone (% control),"Lolium perenne [9]; 60 g/ha, Example 11",40%
same,Compound A alone (% control),"Lolium perenne [9]; 60 g/ha, Example 13",63%
same,Compound A alone (% control),Veronica persica,80%
same,Compound A alone (% control),"Apera spica-venti; 3.75 g/ha, Example 1B",25%
same,Compound A alone (% control),"Apera spica-venti; 3.75 g/ha, Example 7",10%
same,Compound A alone (% control),"Apera spica-venti; 3.75 g/ha, Example 8",10%
same,Compound A alone (% control),"Apera spica-venti; 3.75 g/ha, Example 12",0%
same,Compound A alone (% control),"Apera spica-venti; 7.5 g/ha, Example 1B",35%
same,Compound A alone (% control),"Apera spica-venti; 7.5 g/ha, Example 4",50%
same,Compound A alone (% control),"Apera spica-venti; 7.5 g/ha, Example 10",20%
same,Compound A alone (% control),"Apera spica-venti; 7.5 g/ha, Example 13",10%
same,Compound A alone (% control),"Apera spica-venti; 7.5 g/ha, Example 14",5%
same,Compound A alone (% control),"Apera spica-venti; 15 g/ha, Example 1B",40%
same,Compound A alone (% control),"Apera spica-venti; 15 g/ha, Example 10",50%
same,Compound A alone (% control),"Apera spica-venti; 15 g/ha, Example 14",10%
same,Compound A alone (% control),"Apera spica-venti; 30 g/ha, Example 5",68%
same,Compound A alone (% control),"Apera spica-venti; 30 g/ha, Example 12",53%
same,Compound A alone (% control),"Lamium purpureum [10]; 3.75 g/ha, Example 4",20%
same,Compound A alone (% control),"Lamium purpureum [10]; 3.75 g/ha, Example 7",20%
same,Compound A alone (% control),"Lamium purpureum [10]; 3.75 g/ha, Example 8",20%
same,Compound A alone (% control),"Lamium purpureum [10]; 3.75 g/ha, Example 12",35%
same,Compound A alone (% control),"Lamium purpureum [10]; 7.5 g/ha, Example 7",35%
same,Compound A alone (% control),"Lamium purpureum [10]; 7.5 g/ha, Example 8",35%
same,Compound A alone (% control),"Lamium purpureum [10]; 7.5 g/ha, Example 12",55%
same,Compound A alone (% control),"Lamium purpureum [10]; 15 g/ha, Example 1B",83%
same,Compound A alone (% control),"Lamium purpureum [10]; 15 g/ha, Example 7",50%
same,Compound A alone (% control),"Lamium purpureum [10]; 15 g/ha, Example 8",50%
same,Compound A alone (% control),"Setaria viridis [11]; 3.75 g/ha, Example 1B",0%
same,Compound A alone (% control),"Setaria viridis [11]; 3.75 g/ha, Example 4",15%
same,Compound A alone (% control),"Setaria viridis [11]; 3.75 g/ha, Example 5",0%
same,Compound A alone (% control),"Setaria viridis [11]; 3.75 g/ha, Example 9",0%
same,Compound A alone (% control),"Setaria viridis [11]; 3.75 g/ha, Example 10",4%
same,Compound A alone (% control),"Setaria viridis [11]; 3.75 g/ha, Example 14",0%
same,Compound A alone (% control),"Setaria viridis [11]; 7.5 g/ha, Example 1B",23%
same,Compound A alone (% control),"Setaria viridis [11]; 7.5 g/ha, Example 5",8%
same,Compound A alone (% control),"Setaria viridis [11]; 7.5 g/ha, Example 9",5%
same,Compound A alone (% control),"Setaria viridis [11]; 7.5 g/ha, Example 10",15%
same,Compound A alone (% control),"Setaria viridis [11]; 15 g/ha, Example 1B",55%
same,Compound A alone (% control),"Setaria viridis [11]; 15 g/ha, Example 5",58%
same,Compound A alone (% control),Papaver rhoeas [12]; 3.75 g/ha,30%
same,Compound A alone (% control),Papaver rhoeas [12]; 7.5 g/ha,65%
same,Compound A alone (% control),"Galium aparine [13]; 3.75 g/ha, Example 1A",0%
same,Compound A alone (% control),"Galium aparine [13]; 3.75 g/ha, Example 2",0%
same,Compound A alone (% control),"Galium aparine [13]; 7.5 g/ha, Example 2",0%
same,Compound A alone (% control),"Galium aparine [13]; 15 g/ha, Example 2",10%
same,Compound A alone (% control),"Galium aparine [13]; 15 g/ha, Example 3",0%
same,Compound A alone (% control),"Galium aparine [13]; 30 g/ha, Example 3",0%
same,Compound A alone (% control),"Galium aparine [13]; 60 g/ha, Example 3",10%
same,Compound A alone (% control),Lamium purpureum [14],10%
